This passage reports GI50 and TGI results from PubChem BioAssay (NCI).

Experiment in all cases: NCI tumour cell line growth inhibition, 48 h
The test system of assay [1] is BT-549 breast.
Assay [2] relates to HCT-15 colon.
For assay [3], the system named is HOP-62 NSCLC.
Assay [4] has as its system HS 578T breast.
Assay [5] has as its system HT29 colon.
In assay [6] the test system is NCI-H460 lung.
Assay [7] has as its system OVCAR-5 ovarian.
The test system of assay [8] is SF-295 CNS.
Assay [9] relates to SR leukemia.
In assay [10] the test system is U251 CNS.

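Dose response: 5 concentrations. Exposure: 48 h. Format: 96-well plates. Endpoint: linear interpolation; highest concentration if not reached. Here, GI50 denotes the concentration required for 50% inhibition of growth. Definition used: TGI = concentration required for complete inhibition of growth.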

As to `Cc1ccc(C(=O)/C(=C\c2ccc([N+](=O)[O-])cc2)S(=O)Cc2ccc(Cl)cc2)cc1` (stereo not given), the GI50 in assay [1] is 1730 nM; in assay [2], 1610 nM; in assay [3] it was 2390 nM; in [4] it was 2480 nM; in assay [5] it was 1880 nM; in [6], 1840 nM. Moreover, the GI50 was 1970 nM in [7], 1800 nM in assay [8], 1130 nM in [9] and 1560 nM in assay [10]. The TGI amounted to 3.22 µM in [1]; 3.75 µM in [2]; 6.21 µM in [3]; 7.39 µM in assay [4]; 4.3 µM in assay [5]; 3.9 µM in [6]. The TGI amounted to 3.91 µM in assay [7], 4.28 µM in assay [8], 10.1 µM in assay [9] and 3 µM in [10].

Take `C/C(=C\c1cc(C(F)(F)F)n(-c2ccc(N)cc2)n1)[C@@H]1C[C@@H]2O[C@]2(C)CCC[C@H](C)[C@H](O)[C@@H](C)C(=O)C(C)(C)[C@@H](O)CC(=O)O1`: the GI50 in assay [1] was 65 nM; in assay [2], 25.6 nM; in assay [3], 76.2 nM; in [4], 28.7 nM; in assay [5], 6.21 nM; in assay [6], 7.33 nM. For the same compound, the GI50 was 48.8 nM in assay [7], 36.9 nM in assay [8], 22.5 nM in assay [9] and 47.7 nM in [10]. The TGI in assay [1] was 3.44 µM; in [2] it was above 11.1 µM; in [3], above 11.1 µM; in assay [4] it was 0.627 µM; in assay [5] it was 0.339 µM; in assay [6], above 5.06 µM. Also, the TGI was above 11.1 µM in [7], 1.39 µM in assay [8], 2.18 µM in assay [9] and above 11.1 µM in [10].

As to `CC1=C(/C=C/C(C)=C/C=C/C(C)=C/C(=O)O)C(C)(C)CCC1`, the TGI was 63 µM in assay [1]; 70.3 µM in assay [2]; 66 µM in assay [3]; above 81 µM in [4]; 68.3 µM in [5]; 70.5 µM in [6]. For the same compound, the TGI in assay [7] is above 85.4 µM; in [8], above 88.6 µM; in assay [9], above 87.4 µM; in assay [10], 70.7 µM.

Turning to `CC(C(N)C(=O)NC(C(=O)O)C1OC(n2ccc(=O)[nH]c2=O)C(O)C1O)C(O)c1ccc(O)cn1` (stereo not given), the TGI in [1], in assay [2], in assay [3], in assay [4], in [5] and in assay [6] was above 100 µM throughout. Further, the TGI in [7], in assay [8], in assay [9] and in assay [10] was above 100 µM each time.

With `CCc1ccc(C(=Nc2ccc(N(C)C(=O)CN3CCN(C)CC3)cc2)c2c(O)[nH]c3ccc(C(=O)OC)cc23)cc1`, the GI50 was 1320 nM in [1]; 277 nM in assay [2]; 510 nM in assay [3]; 169 nM in assay [4]; 247 nM in [5]; 748 nM in assay [6]. The GI50 in assay [7] was 1250 nM; in assay [8] it was 1010 nM; in [9], 164 nM; in [10], 590 nM. In addition, the TGI worked out at 2.65 µM in assay [1]; 1.25 µM in assay [2]; 2.17 µM in assay [3]; 1.1 µM in assay [4]; 3.17 µM in [5]; 2.21 µM in assay [6]. The TGI was determined as 2.57 µM in assay [7], 2.4 µM in [8], 0.835 µM in [9] and 2.02 µM in [10].

In the case of `NS(=O)(=O)CC1CC[CH-]CC1.[Cl-].[Cl-].[Cl-].[Cl-].[Cl-].[Sb+5].c1ccncc1`, the GI50 in [1], in assay [2], in assay [3], in assay [4], in assay [5] and in assay [6] was above 100000 nM throughout. Also, the GI50 in assay [7], in assay [8], in [9] and in assay [10] was above 100000 nM each time. Moreover, the TGI in assay [1], in assay [2], in [3], in [4], in assay [5] and in assay [6] was above 100 µM each time. Moreover, the TGI in [7], in [8], in assay [9] and in [10] was above 100 µM in each case.

Consider `C=C1C(=O)O[C@H]2[C@H]1CC/C(COC(=O)C(C)c1ccc(CC(C)C)cc1)=C\CC[C@@]1(C)O[C@@H]21` (stereo not given in full), for which the GI50 in [1] was 533 nM; in assay [2] it was 871 nM; in assay [3], 1880 nM; in assay [4], 2040 nM; in [5], 1110 nM; in assay [6] it was 1560 nM. Also, the GI50 in [7] is 1800 nM; in [8] it was 2470 nM; in assay [9], 287 nM; in assay [10], 1490 nM. Also, the TGI in assay [1] was found to be 1.89 µM; in assay [2], 2.37 µM; in [3], 4.26 µM; in assay [4], 5.97 µM; in assay [5], 2.59 µM; in assay [6], 3.16 µM. Further, the TGI is 3.46 µM in assay [7], 7.39 µM in [8], 1.86 µM in assay [9] and 2.89 µM in [10].

Consider `O=C1C2CCN(CC2)C1(CO)CO`, for which the TGI was 41.7 µM in assay [1]; 34.6 µM in assay [2]; above 100 µM in assay [3]; 70.6 µM in [4]; 73.7 µM in assay [5]; above 100 µM in assay [6]. The TGI in assay [7] is 45.9 µM; in [8], above 100 µM; in [9] it was 55.3 µM; in [10], above 75.5 µM.
